# From patent US20130071854A1, “METHODS FOR THE IDENTIFICATION AND CHARACTERIZATION OF HDAC INTERACTING COMPOUNDS” (priority 2009, published 2013)
# Like-named read-outs stand apart in the source and are kept apart here.
# Assays:
# CoREST complex = assay: Chemoproteomic binding profiling, K562 cell extract, SAHA/ITF2357 probe matrix (Kd app); set-up: species or system human
# NuRD complex = assay: as above; set-up: species or system human
# [1] = target: T1, non-HDAC targets (e.g. BZW2, ISOC2, aldehyde dehydrogenases) (Homo sapiens, UniProt O94788); assay: as above; details: protein ALDH1A2; selected HDACi off-targets
# T1 construct: endogenous in cells; host or cells: K562 whole cell extract
# T1 sequence (O94788 1-518): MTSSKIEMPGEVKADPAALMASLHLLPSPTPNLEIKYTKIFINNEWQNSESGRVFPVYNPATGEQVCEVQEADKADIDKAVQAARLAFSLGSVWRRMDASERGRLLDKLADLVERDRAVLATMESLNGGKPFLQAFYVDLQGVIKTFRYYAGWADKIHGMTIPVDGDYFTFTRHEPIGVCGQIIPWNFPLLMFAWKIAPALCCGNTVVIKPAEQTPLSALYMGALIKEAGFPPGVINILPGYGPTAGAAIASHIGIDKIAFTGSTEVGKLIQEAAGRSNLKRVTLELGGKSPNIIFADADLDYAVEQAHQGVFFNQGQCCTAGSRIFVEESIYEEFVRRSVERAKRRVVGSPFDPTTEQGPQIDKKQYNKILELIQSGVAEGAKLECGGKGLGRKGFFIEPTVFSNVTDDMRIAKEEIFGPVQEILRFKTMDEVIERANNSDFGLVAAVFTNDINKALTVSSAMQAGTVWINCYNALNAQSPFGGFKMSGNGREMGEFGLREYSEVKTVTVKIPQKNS
# [2] = target: T2, non-HDAC targets (e.g. BZW2, ISOC2, aldehyde dehydrogenases) (Homo sapiens, UniProt P16152); assay: as above; details: protein CBR1; selected HDACi off-targets
# T2 construct: Kd^app CBR1; other: protein CBR1; selected HDACi off-targets
# T2 sequence (P16152 1-277): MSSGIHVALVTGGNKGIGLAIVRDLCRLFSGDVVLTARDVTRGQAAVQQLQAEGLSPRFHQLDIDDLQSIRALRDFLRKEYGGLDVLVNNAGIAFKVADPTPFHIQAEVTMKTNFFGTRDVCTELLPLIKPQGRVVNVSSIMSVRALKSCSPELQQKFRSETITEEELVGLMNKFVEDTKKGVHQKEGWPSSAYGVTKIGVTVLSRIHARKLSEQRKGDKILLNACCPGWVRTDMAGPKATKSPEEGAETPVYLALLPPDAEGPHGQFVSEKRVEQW
# [3] = target: T3, non-HDAC targets (e.g. BZW2, ISOC2, aldehyde dehydrogenases) (Homo sapiens, UniProt Q08209); assay: as above; details: protein PPP3CA; selected HDACi off-targets
# T3 construct: Kd^app PPP3CA; other: protein PPP3CA; selected HDACi off-targets
# [4] = target: T4, non-HDAC targets (e.g. BZW2, ISOC2, aldehyde dehydrogenases) (Homo sapiens, UniProt Q96AB3); assay: as above; details: protein ISOC2; selected HDACi off-targets
# T4 construct: endogenous in cells; host or cells: K562 whole cell extract
# T4 sequence (Q96AB3 1-205): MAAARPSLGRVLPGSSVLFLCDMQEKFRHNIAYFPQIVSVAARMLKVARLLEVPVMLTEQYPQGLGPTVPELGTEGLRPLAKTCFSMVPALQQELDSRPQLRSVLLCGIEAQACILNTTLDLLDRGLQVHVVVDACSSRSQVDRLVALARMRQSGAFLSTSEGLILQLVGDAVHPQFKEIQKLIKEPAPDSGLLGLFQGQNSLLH
# [5] = target: T5, non-HDAC targets (e.g. BZW2, ISOC2, aldehyde dehydrogenases) (Homo sapiens, UniProt Q9Y6E2); assay: as above; details: protein BZW2; selected HDACi off-targets
# T5 construct: endogenous in cells; host or cells: K562 whole cell extract
# T5 sequence (Q9Y6E2 1-419): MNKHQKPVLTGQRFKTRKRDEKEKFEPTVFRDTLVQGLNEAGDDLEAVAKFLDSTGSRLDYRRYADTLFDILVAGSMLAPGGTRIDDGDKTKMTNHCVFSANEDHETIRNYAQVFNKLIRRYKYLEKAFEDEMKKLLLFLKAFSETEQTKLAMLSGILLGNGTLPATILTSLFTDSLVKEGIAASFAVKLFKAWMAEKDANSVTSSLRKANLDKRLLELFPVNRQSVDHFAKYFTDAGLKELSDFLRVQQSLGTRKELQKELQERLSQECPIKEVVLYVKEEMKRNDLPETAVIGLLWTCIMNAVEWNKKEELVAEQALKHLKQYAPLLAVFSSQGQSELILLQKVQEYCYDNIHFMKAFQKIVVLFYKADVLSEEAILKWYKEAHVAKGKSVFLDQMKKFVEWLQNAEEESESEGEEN
# acetylated tubulin = assay: Cell-based tubulin acetylation assay (immunofluorescence, western blotting); set-up: species or system human; details: K562 and HeLa cells; immunofluorescence and western blotting
# [6] = system: acetylated histones H3 and H4; assay: Cell-based histone acetylation assay (immunofluorescence, western blotting); set-up: species or system human; details: K562 and HeLa cells
# MIER1 = assay: Chemoproteomic binding profiling, K562 cell extract, SAHA/ITF2357 probe matrix (Kd app), ELSA (ELM-SANT) domain protein; set-up: species or system human; details: ELSA (ELM-SANT) domain proteins
# MIER2 = assay: as above; set-up: species or system human; details: ELSA (ELM-SANT) domain proteins
# MIER3 = assay: as above; set-up: species or system human; details: ELSA (ELM-SANT) domain proteins
# RERE = assay: as above; set-up: species or system human
# EHMT2 = assay: Chemoproteomic binding profiling, K562 cell extract, SAHA/ITF2357 probe matrix (Kd app), ELSA (ELM-SANT) domain proteins group; set-up: species or system human; details: protein EHMT2
# HDAC1 = target: T6, HDAC1 (Homo sapiens, UniProt Q13547); assay: Chemoproteomic binding profiling, K562 cell extract, SAHA/ITF2357 probe matrix (Kd app)
# T6 construct: used to probe endogenous HDACs in K562 whole cell extracts; endogenous in cells
# Sin3 complex = assay: as above; set-up: species or system human
# [7] = system: T7, MiDAC complex (HDAC1/2, DNTTIP1, CDYL, MIDEAS); assay: as above; set-up: species or system human
# T7 construct: Kd^app MIDEAS; other: protein MIDEAS; MiDAC complex; Kd^app DNTTIP1; other: protein DNTTIP1
# T6 sequence (Q13547 whole entry): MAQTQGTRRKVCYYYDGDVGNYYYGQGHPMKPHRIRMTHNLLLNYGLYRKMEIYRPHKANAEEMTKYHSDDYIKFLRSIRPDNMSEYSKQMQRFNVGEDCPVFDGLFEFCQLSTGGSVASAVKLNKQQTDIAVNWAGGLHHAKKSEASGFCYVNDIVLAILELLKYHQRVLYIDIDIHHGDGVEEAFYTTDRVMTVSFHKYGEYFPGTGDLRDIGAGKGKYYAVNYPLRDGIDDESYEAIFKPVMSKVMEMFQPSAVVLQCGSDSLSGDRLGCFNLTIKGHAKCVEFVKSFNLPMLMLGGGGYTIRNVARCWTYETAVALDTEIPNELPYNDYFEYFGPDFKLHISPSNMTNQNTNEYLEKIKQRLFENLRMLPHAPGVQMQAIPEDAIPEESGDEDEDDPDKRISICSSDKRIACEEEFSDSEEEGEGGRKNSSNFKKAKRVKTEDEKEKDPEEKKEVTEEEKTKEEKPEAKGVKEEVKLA
structure (smiles),measurement,setting,value
CC(=O)Nc1ccc(C(=O)Nc2ccccc2N)cc1 [tacedinaline],Kd,CoREST complex; read-out: Kd^app GSE1,122 µM
same,Kd,CoREST complex; read-out: Kd^app HMG20A,139 µM
same,Kd,CoREST complex; read-out: Kd^app HMG20B,168 µM
same,Kd,CoREST complex; read-out: Kd^app RCOR1,114 µM
same,Kd,CoREST complex; read-out: Kd^app RCOR2,196 µM
same,Kd,CoREST complex; read-out: Kd^app RCOR3,159 µM
same,Kd,CoREST complex; read-out: Kd^app ZMYM2,> 85 µM
same,Kd,CoREST complex; read-out: Kd^app ZMYM3,> 85 µM
same,Kd,NuRD complex; read-out: Kd^app CHD4,> 85 µM
same,Kd,NuRD complex; read-out: Kd^app GATAD2A,423 µM
same,Kd,NuRD complex; read-out: Kd^app GATAD2B,306 µM
same,Kd,NuRD complex; read-out: Kd^app MBD2,> 85 µM
same,Kd,NuRD complex; read-out: Kd^app MBD3,265 µM
same,Kd,NuRD complex; read-out: Kd^app MTA1,152 µM
same,Kd,NuRD complex; read-out: Kd^app MTA2,226 µM
same,Kd,NuRD complex; read-out: Kd^app MTA3,263 µM
same,Kd,[1],> 85 µM
same,Kd,[2],> 85 µM
same,Kd,[3],> 85 µM
same,Kd,[4],> 85 µM
same,Kd,[5],> 85 µM
same,tubulin acetylation (in words),acetylated tubulin,did not affect tubulin
same,histone acetylation (in words),[6],elicited staining of acetylated histones
same,Kd,MIER1,195 µM
same,Kd,MIER2,184 µM
same,Kd,MIER3,171 µM
same,Kd,RERE,> 85 µM
same,Kd,EHMT2,> 85 µM
C/C=C1\NC(=O)[C@H]2CSSCC/C=C/[C@H](CC(=O)N[C@H](C(C)C)C(=O)N2)OC(=O)[C@H](C(C)C)NC1=O [romidepsin],Kd,HDAC1,10 nM
COc1ccc(Cn2ccc3ccc(C(=O)NO)cc32)cc1 [PCI-34051],Kd,"CoREST complex; protein GSE1, CoREST complex, read-out: Kd^app GSE1",> 59.7 µM
same,Kd,"CoREST complex; protein HMG20A, CoREST complex, read-out: Kd^app HMG20A",> 59.7 µM
same,Kd,"CoREST complex; protein HMG20B, CoREST complex, read-out: Kd^app HMG20B",> 59.7 µM
same,Kd,"CoREST complex; protein PHF21A, CoREST complex, read-out: Kd^app PHF21A",> 59.7 µM
same,Kd,"CoREST complex; protein RCOR1, CoREST complex, read-out: Kd^app RCOR1",> 59.7 µM
same,Kd,"CoREST complex; protein RCOR2, CoREST complex, read-out: Kd^app RCOR2",> 59.7 µM
same,Kd,"CoREST complex; protein RCOR3, CoREST complex, read-out: Kd^app RCOR3",> 59.7 µM
same,Kd,"CoREST complex; protein ZMYM2, CoREST complex, read-out: Kd^app ZMYM2",> 59.7 µM
same,Kd,"CoREST complex; protein ZMYM3, CoREST complex, read-out: Kd^app ZMYM3",> 59.7 µM
same,Kd,"NuRD complex; protein GATAD2A, NuRD complex, read-out: Kd^app GATAD2A",> 59.7 µM
same,Kd,"NuRD complex; protein GATAD2B, NuRD complex, read-out: Kd^app GATAD2B",> 59.7 µM
same,Kd,"NuRD complex; protein MBD2, NuRD complex, read-out: Kd^app MBD2",> 59.7 µM
same,Kd,"NuRD complex; protein MBD3, NuRD complex, read-out: Kd^app MBD3",> 59.7 µM
same,Kd,"NuRD complex; protein MTA1, NuRD complex, read-out: Kd^app MTA1",> 59.7 µM
same,Kd,"NuRD complex; protein MTA2, NuRD complex, read-out: Kd^app MTA2",> 59.7 µM
same,Kd,"NuRD complex; protein MTA3, NuRD complex, read-out: Kd^app MTA3",> 59.7 µM
same,Kd,"Sin3 complex; protein SAP30, read-out: Kd^app SAP30",> 59.7 µM
same,Kd,"Sin3 complex; protein SIN3A, read-out: Kd^app SIN3A",> 59.7 µM
same,Kd,"Sin3 complex; protein SIN3B, read-out: Kd^app SIN3B",> 59.7 µM
same,Kd,"[7]; protein DNTTIP1, read-out: Kd^app DNTTIP1",> 59.7 µM
same,Kd,"[7]; protein MIDEAS, read-out: Kd^app MIDEAS",> 59.7 µM
same,Kd,[1],> 59.7 µM
same,Kd,[2],12.8 µM
same,Kd,[3],59.7 µM
same,Kd,[4],> 59.7 µM
same,Kd,[5],5.04 µM
same,Kd,MIER1,> 59.7 µM
same,Kd,MIER2,> 59.7 µM
same,Kd,MIER3,> 59.7 µM
same,Kd,"RERE; protein RERE, ELSA (ELM-SANT) domain proteins",> 59.7 µM
same,Kd,EHMT2,> 59.7 µM
